The source of these data is PubChem BioAssay (NCI).

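Results reflect a 48-hour exposure of cells in 96-well plates to compound at five concentrations. At the GI50, growth is halved. TGI is the concentration that stops growth completely.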 Some results are limits rather than exact numbers.

Common to all, as to assay: DTP human tumour cell line panel, 48 h
For experiment [1], the system named is IGROV1 ovarian.
Experiment [2] concerns HOP-62 NSCLC.
The subject of experiment [3] is HCC-2998 colon.
Experiment [4] deals with RPMI-8226 leukemia.
For experiment [5], the system named is MCF7 breast.
In experiment [6] the test system is KM12 colon.
The subject of experiment [7] is OVCAR-3 ovarian.
For experiment [8], the system named is TK-10 renal.
For experiment [9], the system named is MDA-MB-231 breast.
Experiment [10] concerns BT-549 breast.

For `COC[C@H]1Cn2cc(-c3nc(Nc4ccnn4C)ncc3C)nc2C(=O)N1Cc1ccc(F)c(F)c1`, the GI50 is 0.315 µM in [1]; 1.15 µM in experiment [2]; 0.0673 µM in experiment [3]; 4.47 µM in experiment [4]; 9.79 µM in experiment [5]; 0.586 µM in [6]. Also, the GI50 was 60.6 µM in experiment [7], 5.5 µM in experiment [8], 0.678 µM in experiment [9] and 48.9 µM in experiment [10]. For the same compound, the TGI in experiment [1], in [2], in [3], in experiment [4], in [5] and in experiment [6] was more than 100 µM throughout. The TGI in [7] was more than 100 µM; in experiment [8], more than 100 µM; in experiment [9], more than 78.6 µM; in experiment [10] it was more than 100 µM.

Consider `CN(C)CC1CC/C(=C\c2ccc(O)cc2)C1=O` (stereo not given), for which the TGI in experiment [1] is 24.1 µM; in experiment [2], 33.6 µM; in experiment [3], 25.5 µM; in [4], 4 µM; in [5], 4.56 µM; in [6], 16.6 µM. Also, the TGI was found to be 8.33 µM in experiment [7], 9.01 µM in [8], 9.22 µM in experiment [9] and 3.73 µM in [10].

As for `c1ccc(Sc2ncnc3ccccc23)cc1`, the GI50 was 4.5 µM in experiment [1]; 16.3 µM in [2]; 15.4 µM in [3]; 9.49 µM in [4]; 17.8 µM in experiment [5]; 13.2 µM in experiment [6]. In addition, the GI50 in [7] is 14.6 µM; in [8] it was 27.6 µM; in [9], 13.5 µM; in experiment [10], 5.42 µM. For the same compound, the total growth inhibition concentration (TGI) was 34.3 µM in experiment [1]; 40.5 µM in [2]; 28.7 µM in experiment [3]; 37.6 µM in experiment [4]; 67.9 µM in experiment [5]; 28.2 µM in experiment [6]. Moreover, the concentration for total growth inhibition (TGI) in [7] is 28 µM; in experiment [8], more than 100 µM; in [9], 49.9 µM; in experiment [10], 22 µM.

Take `Nc1ccccc1SC(CC(=O)c1ccccc1)c1cccc([N+](=O)[O-])c1` (stereo not given): the GI50 in experiment [1] is 13.1 µM; in experiment [2], 15.5 µM; in experiment [3] it was 17.3 µM; in experiment [4], 3.89 µM; in experiment [5] it was 2.6 µM; in experiment [6], 6.24 µM. Further, the GI50 in experiment [7] is 12.8 µM; in [8], 20.7 µM; in [9], 14.4 µM; in experiment [10] it was 17 µM. For the same compound, the TGI in experiment [1] was found to be 28.1 µM; in experiment [2], 28.9 µM; in [3] it was 31.3 µM; in experiment [4] it was 19 µM; in [5], 18 µM; in experiment [6], 19.3 µM. In addition, the concentration for total growth inhibition (TGI) worked out at 25.8 µM in experiment [7], 35.1 µM in experiment [8], 28.3 µM in [9] and 30.9 µM in [10].

The term GI50 denotes the concentration at which growth is held to half of that of the control. Broadly, the TGI is the concentration at which net growth stops. High values mean lower sensitivity of the cells, low ones greater sensitivity of the cells.
